The subject of assay [1] is HCC827GR cells. The settings on record: GEF 1 μM, SAV 2 nM or both. On the procedure:
(§1) All culture media were supplemented with FBS (10 %) and P/S (1 %), and the cells were grown at 37 °C in 5 % CO2.
(§2) The cells were treated with MTT and incubated for 2 h. The supernatants were removed, and the remaining formazan crystals were dissolved in DMSO before absorbance measurement at 570 nm using a Multiscan GO spectrophotometer (Thermo Fisher Scientific, Vantaa, Finland).

For assay [2], the system named is HaCaT cells. The note with it: GEF 1 μM, SAV 2 nM or both. On the procedure:
as §1, §2

Assay [3] deals with HCC827GR cells. In words: Soft agar anchorage-independent growth, HCC827GR. Type of assay: cell-based, human. The settings on record: 2 weeks; for colony number, Control % / colony size, Control %: GEF 1 μM, SAV 2 nM or both. On the procedure: (§3) The anchorage-independent cell growth assay was performed in 6-well plates with dual agar layers containing 0.6 % agar (lower layer) and 0.3 % agar (upper layer) supplemented with BME, 2 mM L-glutamine, 5 μg/ml gentamicin, and 10 % FBS. After 2 weeks of incubation, the number of colonies was assessed using a microscope (Leica, Wetzlar, Germany), and the mean colony area was analyzed using i-Solution ^TM software (Vancouver, BC, Canada).

The subject of assay [4] is HCC827 cells. In words: MTT viability after NAC pretreatment, HCC827. The note with it: HCC827, NAC 4 mM. The assay is classed as cell-based, human. On the procedure:
as §1, §2

In assay [5] the test system is HCC827GR cells. In words: MTT viability after NAC pretreatment, HCC827GR. Type of assay: cell-based, human. The settings on record: HCC827GR, NAC 4 mM. On the procedure: as §1, §2
The subject of assay [6] is p-EGFR. Nature of the assay: Immunoblot p-EGFR with NAC pretreatment, HCC827 and HCC827GR cells. The settings on record: NAC 4 mM; for p-EGFR protein Ratio: control = 1.00. The assay is classed as cell-based, human. On the procedure: (§4) HaCaT cells were grown in DMEM, whereas HCC827 and HCC827GR cells were grown in RPMI 1640. All culture media were supplemented with FBS (10 %) and P/S (1 %), and the cells were grown at 37 °C in 5 % CO2.
(§5) Cells were lysed in RIPA buffer, and protein concentration was determined using a Bio-Rad DC Protein Assay kit (Bio-Rad, Hercules, CA, USA). Protein samples from the cell lysates were resolved by sodium dodecyl sulfate-polyacrylamide gel electrophoresis and then transferred onto polyvinylidene fluoride membranes. The membranes were blocked with 3 % or 5 % skim milk and then incubated at 4 °C overnight with the indicated primary antibodies, followed by the corresponding horseradish peroxidase-conjugated secondary antibodies at RT for 2 h. Protein bands were visualized using western blotting luminol reagent solution and ImageQuant LAS 500 (GE Healthcare, Uppsala, Sweden). The density of the bands was quantified using ImageJ software (NIH, Bethesda, MD, USA).
On the technique in general: Immunoblotting shows a protein as a band on a membrane.

The subject of assay [7] is p-MET. In words: Immunoblot p-MET with NAC pretreatment, HCC827 and HCC827GR cells. The settings on record: NAC 4 mM; for p-MET protein Ratio: control = 1.00. The assay is classed as cell-based, human. On the procedure: as §4, §5
Assay [8] concerns p-AKT. Nature of the assay: Immunoblot p-AKT with NAC pretreatment, HCC827 and HCC827GR cells. The settings on record: NAC 4 mM; for p-AKT protein Ratio: control = 1.00. Type of assay: cell-based, human. On the procedure:
as §4, §5

In assay [9] the test system is caspase-3. In words: Immunoblot caspase-3 with NAC pretreatment, HCC827 and HCC827GR cells. The note with it: for caspase3 protein/actin / caspase3 protein Ratio: NAC 4 mM; for caspase3 protein Ratio: control = 1.00. Type of assay: cell-based, human. On the procedure:
as §4, §5

Assay [10] concerns PARP. In words: Immunoblot PARP with NAC pretreatment, HCC827 and HCC827GR cells. Type of assay: cell-based, human. The note with it: for PARP protein/actin / PARP protein Ratio: NAC 4 mM; for PARP protein Ratio: control = 1.00. On the procedure: as §4, §5
Assay [11] deals with HCC827 cells. The note with it: GEF 1 μM, SAV 2 nM or both. On the procedure:
as §1, §2

In assay [12] the test system is HCC827 cells. In words: Soft agar anchorage-independent growth, HCC827. Type of assay: cell-based, human. The note with it: 2 weeks; GEF 1 μM, SAV 2 nM or both. On the procedure:
as §3

The subject of assay [13] is HCC827 cells. Nature of the assay: MTT viability with Z-VAD-FMK, HCC827. The assay is classed as cell-based, human. On the procedure: as §1, §2
Assay [14] deals with HCC827GR cells. In words: MTT viability with Z-VAD-FMK, HCC827GR. The assay is classed as cell-based, human. The settings on record: Z-VAD-FMK 12 µM, 3 h; DBG 48 h. On the procedure: as §1, §2
[15] abbreviates: NAC 4 mM pretreatment, then DBG.

Like-named read-outs stand apart in the source and are kept apart here.

The values that follow come from PMC11579512, “Deoxybouvardin-glucoside induces apoptosis in non-small cell lung cancer cells by targeting EGFR/MET and AKT signaling pathway” (EXCLI Journal, 2024).

As a reminder, the cell viability is a read-out of living cells in per cent, often relative to untreated cells.

Consider `COc1cc2ncnc(Nc3ccc(F)c(Cl)c3)c2cc1OCCCN1CCOCC1` [GEF, gefitinib, reference compound], for which the cell viability in assay [1] (24 h, mean, n=3) worked out at 102.64%; in [1] (24 h, replicate 1), 103.39%; in [1] (24 h, replicate 2), 100.47%; in assay [1] (24 h, replicate 3) it was 104.06%; in assay [1] (48 h, mean, n=3), 96.35%; in assay [1] (48 h, replicate 1), 98.10%. Also, the cell viability is listed as 91.57% in [1] (48 h, replicate 2); 99.38% in assay [1] (48 h, replicate 3); 65.33% in assay [2] (24 h, mean, n=3); 65.07% in [2] (24 h, replicate 1); 64.14% in assay [2] (24 h, replicate 2); 66.80% in assay [2] (24 h, replicate 3). For the same compound, the cell viability in assay [2] (48 h, mean, n=3) came out at 39.87%; in [2] (48 h, replicate 1), 39.75%; in assay [2] (48 h, replicate 2) it was 40.25%; in assay [2] (48 h, replicate 3) it was 39.62%. Moreover, in assay [3], the “colony number, Control %” value worked out at 84.14%. Moreover, the “colony size, Control %” value in assay [3] was 98.13%.
As for `CC(=O)N[C@@H](CS)C(=O)O` [NAC, N-acetyl-L-cysteine, reference compound], the “cell viability (relative to untreated = 100.00)” value is recorded as 104.34 in [4] (mean of 3); 105.47 in assay [4] (replicate 1); 103.68 in assay [4] (replicate 2); 103.89 in assay [4] (replicate 3); 99.78 in assay [5] (mean of 3); 99.39 in [5] (replicate 1). Further, the “cell viability (relative to untreated = 100.00)” value is 100.59 in assay [5] (replicate 2) and 99.36 in assay [5] (replicate 3). Besides, the p-EGFR protein/actin in assay [6] (HCC827, control 0.90) came to 0.68; in [6] (HCC827GR, control 0.93) it was 0.93. The “p-EGFR protein Ratio” value in [6] (HCC827) is listed as 0.76; in [6] (HCC827GR) it was 1.00. The p-MET protein/actin in [7] (HCC827, control 1.17) is reported as 0.89; in assay [7] (HCC827GR, control 1.14), 1.03. The “p-MET protein Ratio” value in assay [7] (HCC827) was 0.76; in assay [7] (HCC827GR), 0.91. For the same compound, the p-AKT protein/actin in assay [8] (HCC827, control 1.00) was determined as 0.79; in assay [8] (HCC827GR, control 1.04) it was 0.95. In addition, the “p-AKT protein Ratio” value in assay [8] (HCC827) is 0.79; in [8] (HCC827GR), 0.92. Moreover, the caspase3 protein/actin in assay [9] (HCC827, control 0.39) is recorded as 0.48; in assay [9] (HCC827GR, control 0.59), 0.90. Besides, the “caspase3 protein Ratio” value in assay [9] (HCC827) is 1.23; in assay [9] (HCC827GR) it was 1.54. Further, the “cleaved caspase-3 level” value in [9] (setting [15]) was “significantly prevented the increase”. Besides, the PARP protein/actin in [10] (HCC827, control 0.96) is 1.00; in [10] (HCC827GR, control 0.99), 1.32. In addition, the “PARP protein Ratio” value in assay [10] (HCC827) was 1.04; in assay [10] (HCC827GR), 1.33. In addition, the “cleaved PARP level” value in assay [10] (setting [15]) is “significantly prevented the increase”.
Take `C[C@@H](c1ccc2nccn2c1)n1nnc2ncc(-c3cnn(C)c3)nc21` [SAV, savolitinib, reference compound]: the cell viability stood at 95.55% in assay [11] (24 h, mean, n=3); 94.16% in assay [11] (24 h, replicate 1); 96.61% in assay [11] (24 h, replicate 2); 95.89% in assay [11] (24 h, replicate 3); 94.28% in assay [11] (48 h, mean, n=3); 94.71% in assay [11] (48 h, replicate 1). The cell viability in assay [11] (48 h, replicate 2) came out at 94.13%; in assay [11] (48 h, replicate 3), 94.00%; in assay [1] (24 h, mean, n=3), 97.44%; in assay [1] (24 h, replicate 1), 102.35%; in [1] (24 h, replicate 2) it was 94.96%; in assay [1] (24 h, replicate 3), 95.02%. In addition, the cell viability is given as 94.70% in assay [1] (48 h, mean, n=3); 91.23% in assay [1] (48 h, replicate 1); 97.86% in [1] (48 h, replicate 2); 95.02% in assay [1] (48 h, replicate 3); 98.31% in assay [2] (24 h, mean, n=3); 97.97% in assay [2] (24 h, replicate 1). For the same compound, the cell viability in assay [2] (24 h, replicate 2) is on record as 99.14%; in assay [2] (24 h, replicate 3), 97.82%; in assay [2] (48 h, mean, n=3) it was 95.26%; in assay [2] (48 h, replicate 1), 95.75%; in assay [2] (48 h, replicate 2), 95.82%; in assay [2] (48 h, replicate 3), 94.21%. Further, the “colony formation, in words” value in assay [12] is “did not significantly alter the colony size and count”; in [3] (SAV 2 nM), “did not significantly alter the colony size and count”. Besides, the “colony size, Control %” value in [12] is 94.26%; in assay [3], 125.91%. In assay [3], the “colony number, Control %” value came out at 90.34%.
“Z-Val-Ala-Asp-(OMe)-fluoromethyl ketone [Z-VAD-FMK]”: the “DBG-mediated inhibition of viability with Z-VAD-FMK” value is recorded as “significantly recovered” in assay [13] (Z-VAD-FMK 12 µM, 3 h, DBG 48 h) and “significantly recovered” in assay [14]. For the same compound, the “DBG-induced apoptosis with Z-VAD-FMK” value in assay [13] (Z-VAD-FMK pretreatment, cell line not specified (NSCLC cells)) is recorded as “prevented the DBG-induced apoptosis”.
